# Reference: US20240398787A1, “TREATMENT OF MAJOR DEPRESSIVE DISORDER” (AbbVie Inc., priority 2021, published 2024)
# Tested on: patients with major depressive disorder (MDD)
# Assay: MADRS total score, Clinical Study A (Study 301): cariprazine adjunctive to ADT, 6-week double-blind
# Type: in vivo, human
# Conditions: for Proportion of patients with MADRS improvement ≥5 points / Proportion of patients with MADRS improvement ≥10 points / Proportion of patients with MADRS improvement ≥15 points / Proportion of patients with MADRS improvement ≥20 points / Proportion of patients with MADRS improvement ≥25 points: post hoc, end of week 6 (LOCF); for MADRS remission rate (total score ≤10) / MADRS response rate (≥50% score reduction from baseline): LOCF
# Experimental: A global, multicenter, randomized, double-blind (DB), placebo-controlled, parallel-group, fixed-dose study compared cariprazine 1.5 mg/day and cariprazine 3 mg/day with placebo as an adjunctive treatment to ongoing ADT in outpatients with a diagnosis of MDD (via the Diagnostic and Statistical Manual of Mental Disorders, Fifth Edition [DSM-5]) having an inadequate response, as measured by the modified Antidepressant Treatment Response Questionnaire (ATRQ), to 1 to 3 antidepressants administered during the current episode at an adequate dose and adequate duration. Adequate dose was defined as a dose above the minimum labeled dose (per package insert). Adequate duration was defined as continuous ADT treatment for at least 6 weeks, with a minimum of 3 of 6 weeks above the minimal dose.
# The study population included patients meeting criteria for MDD with a current major depressive episode of at least 8 weeks to less than 24 months in duration and an inadequate response to ongoing antidepressant therapy on the current episode. Both male and female patients of 18 to 65 years of age qualified for the study. Patients met the DSM-5 criteria for MDD based on the SCID-5, with a current major depressive episode of at least 8 weeks to less than 24 months in duration at the time of patient screening. A diagnosis of MDD with psychotic features was […].
# Adequate dose was defined as a dose above the minimum labeled dose (per package insert). Adequate duration was defined as continuous antidepressant therapy treatment for at least 6 weeks, with a minimum of 3 of 6 weeks above the minimum dose.
# The study consisted of up to 14 days screening (with up to an additional 7 days of needed) and washout of prohibited medications followed by 6 weeks of double-blind (DB) treatment followed by a 4-week safety follow-up. At the end of the screening period, patients meeting the entry criteria for the study were randomized (1:1:1) to 1 of 3 double-blind treatment groups. Study treatment groups were: cariprazine 1.5 mg/day+antidepressant therapy and cariprazine 3 mg/day+antidepressant therapy. The control group received matching placebo+antidepressant therapy.
# Dosage/Dose Regimen: Investigational product (cariprazine or placebo) in the form of capsules packaged in blister packs will be provided. No investigational product was administered during the screening/washout period; patients continued the same antidepressant and dose they were on at screening. Patients were taking more than one antidepressant at screening, regardless of the indication, discontinued all other antidepressants prior to baseline (Visit 2). During the double-blind treatment period (6 weeks), patients were administered 1 capsule orally per day in addition to their ongoing ADT. Patients in the 1.5 mg/day+ADT arm were administered 1.5 mg+ADT starting at Visit 2 (Week 0). Patients in the 3 mg/day+ADT arm were administered 1.5 mg+ADT starting at Visit 2 (Week 0) for 2 weeks and then titrate to 3 mg/day+ADT starting at Visit 4 (Week 2). Patients were supplied with identically appearing capsules of either cariprazine 1.5 mg, cariprazine 3 mg, or placebo.
# A randomized, double-blind, placebo-controlled, multicenter trial with 759 participants was conducted in United States, Bulgaria, Estonia, Germany, Hungary, Ukraine, and the United Kingdom. Following a screening period of up to 14 days (with up to an additional 7 days if needed), which included a washout of prohibited psychotropic medications except for ongoing ADT, patients with a partial response to their antidepressant monotherapy were randomized into three treatment groups (1:1:1). One group received cariprazine 1.5 mg/d+ADT, one received cariprazine 3.0 mg/d+ADT, and one group received placebo+ADT. All participants randomized to cariprazine began on 1.5 mg/d; cariprazine 1.5 mg/d patients remained at that dosage, while cariprazine 3.0 mg/d patients received 1.5 mg/d for 2 weeks and increased to 3.0 mg/d on day 15. […]
# [1] = 1.5 mg/d + ADT, week 6, ANCOVA and LOCF
# [2] = 3.0 mg/d + ADT, week 6, ANCOVA and LOCF
# [3] = change from baseline to week 6, dose not stated
smiles,measurement,setting,value
"CN(C)C(=O)N[C@H]1CC[C@H](CCN2CCN(c3cccc(Cl)c3Cl)CC2)CC1 [Cariprazine, trans-N-{4-[2-[4-(2,3-dichlorophenyl)piperazin-1-yl]ethyl]cyclohexyl}-N′,N′-dimethylurea]",Proportion of patients with MADRS improvement ≥5 points,1.5 mg/d + ADT,84%
same,Proportion of patients with MADRS improvement ≥10 points,1.5 mg/d + ADT,64%
same,Proportion of patients with MADRS improvement ≥15 points,1.5 mg/d + ADT,46%
same,Proportion of patients with MADRS improvement ≥20 points,1.5 mg/d + ADT,33%
same,Proportion of patients with MADRS improvement ≥25 points,1.5 mg/d + ADT,19%
same,Mean (SD) MADRS score at week 6,"1.5 mg/d + ADT, week 6",17.4 (9.1)
same,LS mean change from baseline in MADRS total score,[1],−14.4
same,"LSMD vs placebo, MADRS total score",[1],−2.4
same,MADRS remission rate (total score ≤10),"1.5 mg/d + ADT, week 6",25.2%
same,MADRS response rate (≥50% score reduction from baseline),"1.5 mg/d + ADT, week 6",44.0%
same,"LS Mean (SE) change from baseline, MADRS total score","1.5 mg/day + ADT, week 1, MMRM",−4.4 (0.5)
same,"LSMD (95% CI) vs placebo + ADT, MADRS total score","1.5 mg/day + ADT, week 1, MMRM",−0.6 (−1.5; 0.5)
same,"MADRS remission, odds ratio vs placebo (95% CI)","1.5 mg/day + ADT, week 2","0.9 (0.4, 1.8)"
same,MADRS remissions (total score ≤10),"1.5 mg/day + ADT, week 2",13 (5.2) n (%)
same,MADRS responders (≥50% score reduction),"1.5 mg/day + ADT, week 2",43 (17.2) n (%)
same,"MADRS response, odds ratio vs placebo (95% CI)","1.5 mg/day + ADT, week 2","1.2 (0.7, 2.0)"
same,"LS Mean (SE) change from baseline, MADRS total score","1.5 mg/day + ADT, week 2, MMRM",−8.6 (0.6)
same,"LSMD (95% CI) vs placebo + ADT, MADRS total score","1.5 mg/day + ADT, week 2, MMRM",−1.2 (−2.5; 0)
same,"MADRS remission, odds ratio vs placebo (95% CI)","1.5 mg/day + ADT, week 4","1.2 (0.7, 1.9)"
same,MADRS remissions (total score ≤10),"1.5 mg/day + ADT, week 4",37 (14.8) n (%)
same,MADRS responders (≥50% score reduction),"1.5 mg/day + ADT, week 4",88 (35.2) n (%)
same,"MADRS response, odds ratio vs placebo (95% CI)","1.5 mg/day + ADT, week 4","1.6 (1.1, 2.3)"
same,"LS Mean (SE) change from baseline, MADRS total score","1.5 mg/day + ADT, week 4, MMRM",−12.4 (0.6)
same,"LSMD (95% CI) vs placebo + ADT, MADRS total score","1.5 mg/day + ADT, week 4, MMRM",−2.9 (−4.3; −1.5)
same,MADRS remissions (total score ≤10),"1.5 mg/day + ADT, week 6",63 (25.2) n (%)
same,MADRS responders (≥50% score reduction),"1.5 mg/day + ADT, week 6",110 (44.0) n (%)
same,"LSMD vs placebo, MADRS total score","1.5 mg/day + ADT, week 6, MMRM",−2.5 (−4.2; −0.9)
same,"LSMD vs placebo, MADRS total score","1.5 mg/day + ADT, week 6, MMRM, listed as CAR",−2.5
same,"LSMD vs placebo, MADRS total score","1.5 mg/day + ADT, week 6, MMRM, listed as cariprazine",−2.5
same,LS mean change from baseline in MADRS total score,"1.5 mg/day + ADT, week 6, MMRM, mITT",−14.1 (0.7)
same,LS mean change from baseline in MADRS total score,"1.5 mg/day + ADT, week 6, MMRM, mITT, listed as cariprazine",−14.1
same,Proportion of patients with MADRS improvement ≥5 points,3.0 mg/d + ADT,84%
same,Proportion of patients with MADRS improvement ≥10 points,3.0 mg/d + ADT,66%
same,Proportion of patients with MADRS improvement ≥15 points,3.0 mg/d + ADT,43%
same,Proportion of patients with MADRS improvement ≥20 points,3.0 mg/d + ADT,24%
same,Proportion of patients with MADRS improvement ≥25 points,3.0 mg/d + ADT,11%
same,Mean (SD) MADRS score at week 6,"3 mg/d + ADT, week 6",18.6 (8.9)
same,LS mean change from baseline in MADRS total score,[2],−13.3
same,"LSMD vs placebo, MADRS total score",[2],−1.3
same,MADRS remission rate (total score ≤10),"3.0 mg/d + ADT, week 6",16.7%
same,MADRS response rate (≥50% score reduction from baseline),"3.0 mg/d + ADT, week 6",39.3%
same,"LS Mean (SE) change from baseline, MADRS total score","3 mg/day + ADT, week 1, MMRM",−3.9 (0.5)
same,"LSMD (95% CI) vs placebo + ADT, MADRS total score","3 mg/day + ADT, week 1, MMRM",−0.1 (−1.0; 0.8)
same,"MADRS remission, odds ratio vs placebo (95% CI)","3 mg/day + ADT, week 2","0.5 (0.25, 1.23)"
same,MADRS remissions (total score ≤10),"3 mg/day + ADT, week 2",9 (3.6) n (%)
same,MADRS responders (≥50% score reduction),"3 mg/day + ADT, week 2",39 (15.5) n (%)
same,"MADRS response, odds ratio vs placebo (95% CI)","3 mg/day + ADT, week 2","1.1 (0.7, 1.8)"
same,"LS Mean (SE) change from baseline, MADRS total score","3 mg/day + ADT, week 2, MMRM",−7.8 (0.6)
same,"LSMD (95% CI) vs placebo + ADT, MADRS total score","3 mg/day + ADT, week 2, MMRM",−0.5 (−1.7; 0.8)
same,"MADRS remission, odds ratio vs placebo (95% CI)","3 mg/day + ADT, week 4","0.6 (0.4, 1.1)"
same,MADRS remissions (total score ≤10),"3 mg/day + ADT, week 4",22 (8.7) n (%)
same,MADRS responders (≥50% score reduction),"3 mg/day + ADT, week 4",60 (23.8) n (%)
same,"MADRS response, odds ratio vs placebo (95% CI)","3 mg/day + ADT, week 4","0.9 (0.6, 1.3)"
same,"LS Mean (SE) change from baseline, MADRS total score","3 mg/day + ADT, week 4, MMRM",−10.6 (0.6)
same,"LSMD (95% CI) vs placebo + ADT, MADRS total score","3 mg/day + ADT, week 4, MMRM",−1.0 (−2.4; 0.4)
same,MADRS remissions (total score ≤10),"3 mg/day + ADT, week 6",42 (16.7) n (%)
same,MADRS responders (≥50% score reduction),"3 mg/day + ADT, week 6",99 (39.3) n (%)
same,"LSMD vs placebo, MADRS total score","3 mg/day + ADT, week 6, MMRM",−1.5 (−3.2; 0.1)
same,"LSMD vs placebo, MADRS total score","3 mg/day + ADT, week 6, MMRM, listed as CAR",−1.5
same,LS mean change from baseline in MADRS total score,"3 mg/day + ADT, week 6, MMRM, mITT",−13.1
same,"LSMD vs placebo, MADRS individual item ""apparent sadness""",[3],−0.2
same,"LSMD vs placebo, MADRS individual item ""inability to feel""",[3],−0.3
same,"LSMD vs placebo, MADRS individual item ""lassitude""",[3],−0.3
same,"LSMD vs placebo, MADRS individual item ""pessimistic thoughts""",[3],−0.3
same,"LSMD vs placebo, MADRS individual item ""reduced appetite""",[3],−0.3
same,"LSMD vs placebo, MADRS individual item ""reported sadness""",[3],−0.4
same,"LSMD vs placebo, MADRS individual item ""suicidal thoughts""",[3],−0.1
